This is an account of results in patent US6655379B2, “Aerosolized active agent delivery” (Nektar Therapeutics, priority 1998, dated 2003).

The conditions of data set [1]: human, in vivo.
The conditions of data set [2]: in vivo; cited from earlier work.

With “Human calcitonin: Powders containing 26.7% human calcitonin (Ciba-Geigy), spray dried with mannitol and citrate buffer”, in data set [1], the “bioavailabilities, comparison of flow rates” value is on record as “higher bioavailabilities” and the “times to peak concentration, comparison of flow rates” value is “lower times to peak concentration”.
As to Albuterol sulfate, the “therapeutic effect, comparison of flow rates” value (dry powder inhaled, flow rates below 17 liters per minute vs above 17 liters per minute) was “increased therapeutic effect”. Further, the “lung deposition, comparison of flow rates” value (human, in vivo) is “higher lung deposition”.
Consider Low molecular weight heparin, for which, in data set [1], the “bioavailabilities, comparison of flow rates” value is “higher bioavailabilities” and the “times to peak concentration, comparison of flow rates” value is listed as “lower times to peak concentration”.
With “semi-synthetic human insulin: semi-synthetic human insulin delivered by nebulizer to six diabetic children (Elliot et al)”, the “efficiency of absorption as compared to subcutaneous delivery” value in data set [2] was 20-25%.
